In patent US6703502B2 (priority 1997, dated 2004):

Target: α7 nAChR subtype (Rattus norvegicus, UniProt Q05941)
Type: binding
Conditions: read-out: KD of radioligand

Chain of α7 nAChR subtype (Q05941 23-502 limits assumed): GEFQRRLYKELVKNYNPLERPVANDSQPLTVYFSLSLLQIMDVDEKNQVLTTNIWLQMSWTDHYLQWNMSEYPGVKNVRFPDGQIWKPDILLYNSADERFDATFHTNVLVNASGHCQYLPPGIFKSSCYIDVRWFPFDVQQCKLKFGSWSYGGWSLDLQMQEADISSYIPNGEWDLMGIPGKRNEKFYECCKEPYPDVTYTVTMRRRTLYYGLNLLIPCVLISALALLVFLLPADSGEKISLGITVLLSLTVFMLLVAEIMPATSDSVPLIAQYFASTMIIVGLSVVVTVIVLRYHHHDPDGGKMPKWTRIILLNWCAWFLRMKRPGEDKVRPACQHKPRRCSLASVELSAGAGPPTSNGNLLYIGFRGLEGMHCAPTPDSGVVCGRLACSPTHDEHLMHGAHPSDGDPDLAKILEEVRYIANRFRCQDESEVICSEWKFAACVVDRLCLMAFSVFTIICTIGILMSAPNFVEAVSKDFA

[^125I]-α-Bungarotoxin [^125I-α-BTX]
Kd: 1.67 nM
